36 compounds from patent US20250221966A1, “RXFP1 AGONISTS” (BRISTOL-MYERS SQUIBB COMPANY, priority 2021, published 2025) can be followed below.

The target in this test is T1, human RXFP1 (Homo sapiens, UniProt Q9HBX9).
T1 construct: expressed in transfected cells
T1 sequence (Q9HBX9 1-757): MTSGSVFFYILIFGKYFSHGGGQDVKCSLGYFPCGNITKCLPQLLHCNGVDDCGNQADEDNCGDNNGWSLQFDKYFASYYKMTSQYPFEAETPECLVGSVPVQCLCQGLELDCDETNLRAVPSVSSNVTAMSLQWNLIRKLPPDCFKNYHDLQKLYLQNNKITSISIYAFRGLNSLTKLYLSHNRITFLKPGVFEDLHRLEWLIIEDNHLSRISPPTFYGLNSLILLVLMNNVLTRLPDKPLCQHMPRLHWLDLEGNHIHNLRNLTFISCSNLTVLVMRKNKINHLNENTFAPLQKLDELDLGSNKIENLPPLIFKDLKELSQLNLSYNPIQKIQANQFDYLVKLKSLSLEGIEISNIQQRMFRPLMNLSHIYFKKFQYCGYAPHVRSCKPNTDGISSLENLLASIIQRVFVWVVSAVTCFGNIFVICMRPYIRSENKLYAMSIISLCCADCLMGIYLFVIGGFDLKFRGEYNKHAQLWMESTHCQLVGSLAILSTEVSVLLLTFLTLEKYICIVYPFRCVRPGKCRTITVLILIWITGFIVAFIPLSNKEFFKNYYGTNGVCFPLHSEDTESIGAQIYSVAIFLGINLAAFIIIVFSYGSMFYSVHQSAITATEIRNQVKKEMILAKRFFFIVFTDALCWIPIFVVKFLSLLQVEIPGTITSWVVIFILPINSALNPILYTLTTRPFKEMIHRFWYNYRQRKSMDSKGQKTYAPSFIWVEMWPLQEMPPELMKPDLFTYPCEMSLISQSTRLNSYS
Kind of test: RXFP1 cAMP assay (hRXFP1 HEK293 cAMP assay, HTRF). The class given is cell-based. The settings on record: HEK293 cells stably expressing human RXFP1, 30 min at room temperature, read-out: cAMP hRXFP1 HEK293 Assay EC50. The procedure, abridged: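 HEK293 cells stably expressing human RXFP1 (1500 cells/well) in HBSS/20 mM HEPES/0.05% BSA/0.5 mM IBMX. Compounds were tested at 0.010 nM–50 μM final (2% DMSO) for 30 min at room temperature. cAMP was measured by HTRF and values derived by 4-parameter logistic fit.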
A general note: Cyclic AMP is a second messenger, typically raised through Gs and lowered through Gi signalling.

SMILES strings stand for the structures.

The term EC50 denotes the concentration giving half of the maximal effect. On to `COc1ccc(-c2ccc(C(=O)O)cc2F)cc1C(=O)N[C@H]1[C@@H](C(=O)Nc2ccc(F)c(C(F)(F)F)c2)[C@H]2CC[C@@H]1/C2=C\C1CC(F)(F)C1` [compound 919], for which the concentration for a half-maximal effect (EC50) turned out to be 3.6 nM. The figure for `COc1ccc(-c2cc(C(COC(=O)NC3CCC3)C(F)(F)F)ccc2F)cc1C(=O)N[C@H]1[C@@H](C(=O)Nc2ccc(F)c(C(F)(F)F)c2)[C@H]2CC[C@@H]1/C2=C\C1CC1` (stereo partly drawn) [compound 878] is 5.1 nM.

For the compound `COc1cc(F)c(C2=NOC3COCC23)cc1C(=O)N[C@H]1[C@@H](C(=O)Nc2ccc(F)c(C(F)(F)F)c2)[C@H]2CC[C@@H]1/C2=C\C1CC1` (stereo partly drawn) [Example 419, (1R,2S,3R,4R,Z)-7-(cyclopropylmethylene)-3-(4-fluoro-2-methoxy-5-(3a,4,6,6a-tetrahydrofuro[3,4-d]isoxazol-3-yl)benzamido)-N-(4-fluoro-3-(trifluoromethyl)phenyl)bicyclo[2.2.1]heptane-2-carboxamide], the EC50 came out at 17 nM. The figure for `COc1ccc(-c2cc(C(OC(=O)NC3CC4(CC4)C3)C(F)(F)F)ccc2F)cc1C(=O)N[C@@H]1C2CCC(/C2=C/C2CC2)[C@@H]1C(=O)Nc1ccc(F)c(C(F)(F)F)c1` (stereo partly drawn) [compound 215] is 2 nM. As for `COCC1CC(c2ccc(OC)c(C(=O)N[C@H]3[C@@H](C(=O)Nc4ccc(F)c(C(F)(F)F)c4)[C@H]4CC[C@@H]3C4=CC3CC3)c2)=NO1` (stereo partly drawn) [compound 551], the EC50 came to 36.6 nM. To `COc1cc(F)c(F)cc1C(=O)N[C@@H]1C2CCC(/C2=C/c2cnn(C)c2)[C@@H]1C(=O)Nc1ccc(F)c(C(F)(F)F)c1` (stereo partly drawn) [compound 66] belongs 1700 nM; to `COc1ccc(C2=NOC3COCC23)cc1C(=O)N[C@H]1[C@@H](C(=O)NC2CCC(C(F)(F)F)C2)[C@H]2CC[C@@H]1/C2=C\C1CC1` (single isomer, unassigned) [Example 589], 83.5 nM. In the case of `COc1ccc(-c2ccc(C(=O)NCC(=O)O)cc2F)cc1C(=O)N[C@@H]1C2CCC(/C2=C/c2ccccc2)[C@@H]1C(=O)Nc1ccc(F)c(C(F)(F)F)c1` (stereo partly drawn) [compound 194], the EC50 stood at 5 nM. To `COc1ccc(C2=NOC(C)(C)N2C(C)C)cc1C(=O)N[C@H]1[C@@H](C(=O)Nc2ccc(F)c(C(F)(F)F)c2)[C@H]2CC[C@@H]1/C2=C\C1CC1` [Example 591] belongs 86.6 nM; to `COc1ccc(-c2cc(C(NC(=O)C3CCOCC3)C(=O)O)ccc2F)cc1C(=O)N[C@H]1[C@@H](C(=O)Nc2ccc(F)c(C(F)(F)F)c2)[C@H]2CC[C@@H]1/C2=C\C1CC1` (stereo partly drawn) [Example 238, 2-(3′-(((1R,2R,3S,4R,Z)-7-(cyclopropylmethylene)-3-((4-fluoro-3-(trifluoromethyl)phenyl)carbamoyl)bicyclo[2.2.1]heptan-2-yl)carbamoyl)-6-fluoro-4′-methoxy-[1,1′-biphenyl]-3-yl)-2-(tetrahydro-2H-pyran-4-carboxamido)acetic acid], 1 nM. To `COc1ccc(-c2ccc(C(=O)O)cc2F)cc1C(=O)N[C@@H]1C2CCC(/C2=C/C(F)(F)F)[C@@H]1C(=O)Nc1ccc(F)c(C(F)(F)F)c1` (stereo partly drawn) [compound 293] belongs 32 nM; to `COc1ccc(C2=NOC3COCC23)cc1C(=O)N[C@H]1[C@@H](C(=O)NCc2ccccc2C#N)[C@H]2CC[C@@H]1/C2=C\C1CC1` (stereo partly drawn) [compound 613], 137 nM.

Turning to `COc1ccc(N2CCCC(CO)C2)cc1C(=O)N[C@@H]1C2CCC(/C2=C/C2CC2)[C@@H]1C(=O)Nc1ccc(F)c(C(F)(F)F)c1` (single isomer, unassigned) [compound 704], the concentration giving a half-maximal response (EC50) worked out at 1300 nM. For `O=C(N[C@H]1[C@@H](C(=O)Nc2ccc(F)c(C(F)(F)F)c2)[C@H]2CC[C@@H]1/C2=C\C1CC1)c1cc(C2=NOC3CC(CO)CC23)ccc1F` (single isomer, unassigned) [compound 717], the EC50 is 2320 nM. To `COc1ccc(-c2cc([C@H](OC(=O)NC3CCC3)C(F)(F)F)ccc2F)cc1C(=O)N[C@H]1[C@@H](C(=O)N[C@H](C)C2(C)CC2)[C@H]2CC[C@@H]1/C2=C\CCC(F)(F)F` [compound 966] belongs 6.9 nM; to `COc1ccc(C2=NOC3COCC23)cc1C(=O)N[C@@H]1C2CCC(/C2=C/C2CCC2)[C@@H]1C(=O)Nc1ccc(F)c(C(F)(F)F)c1` (single isomer, unassigned) [Example 416], 1 nM. `COc1ccc(-c2cc(C(NC(=O)C3CCOCC3)C(=O)O)ccc2F)cc1C(=O)N[C@H]1[C@@H](C(=O)Nc2ccc(F)c(C(F)(F)F)c2)[C@H]2CC[C@@H]1/C2=C\CC(C)C` (stereo partly drawn) [compound 941]: the EC50 was found to be 1.2 nM. Regarding `COc1c(F)cc(C2=NOC3CC(CO)CC23)cc1C(=O)N[C@H]1[C@@H](C(=O)N[C@H](C)C2(C)CC2(F)F)[C@H]2CC[C@@H]1/C2=C\C1CC1` (stereo partly drawn) [compound 759], the EC50 was 1 nM. The figure for `COc1ccc(C2=NOC(CO)C2)cc1C(=O)N[C@@H]1C2CCC(/C2=C/C2CC2)[C@@H]1C(=O)Nc1ccc(F)c(C(F)(F)F)c1` (stereo partly drawn) [compound 382] is 118 nM; for `COc1ccc(C2=NOC3COCC23)cc1C(=O)N[C@H]1[C@@H](C(=O)N[C@@H]2CCc3ccccc32)[C@H]2CC[C@@H]1/C2=C\C1CC1` (stereo partly drawn) [compound 577] it is 70.7 nM. To `CCOC(=O)c1c(-c2ccc(F)cc2)[nH]c2ccc(-c3ccc(OC)c(C(=O)N[C@@H]4C5CCC(/C5=C/C(F)(F)F)[C@@H]4C(=O)Nc4ccc(F)c(C(F)(F)F)c4)c3)cc12` (stereo partly drawn) [compound 298] belongs 70 nM; to `CCCC#C/C=C1\C2CCC1[C@H](C(=O)Nc1ccc(F)c(C(F)(F)F)c1)[C@@H]2NC(=O)c1cc(F)c(F)cc1OC` (stereo partly drawn) [compound 135], 370 nM; to `COc1ccc(-c2cc([C@H](OC(=O)NC3CC3)C(F)(F)F)ccc2F)cc1C(=O)N[C@H]1[C@@H](C(=O)Nc2ccc(F)c(C(F)(F)F)c2)[C@H]2CC[C@@H]1/C2=C\C(C)C` [compound 930], 1.1 nM.

As to `COc1ccc(C2=NO[C@H]3C[C@H](CO)C[C@@H]23)cc1C(=O)N[C@H]1[C@@H](C(=O)NC23CC(C)(C2)C3)[C@H]2CC[C@@H]1/C2=C\C[C@@H](O)C(F)(F)F` [compound 831], the 50% effective concentration (EC50) came to 3.5 nM. The figure for `COc1ccc(-c2cc(CO)on2)cc1C(=O)N[C@H]1[C@@H](C(=O)Nc2ccc(F)c(C(F)(F)F)c2)[C@H]2CC[C@@H]1/C2=C\C1CC1` [Example 423, (1R,2S,3R,4R,Z)-7-(cyclopropylmethylene)-N-(4-fluoro-3-(trifluoromethyl)phenyl)-3-(5-(5-(hydroxymethyl)isoxazol-3-yl)-2-methoxybenzamido)bicyclo [2.2.1]heptane-2-carboxamide] is 28 nM. The figure for `COc1ccc(-c2cc([C@H](NC(=O)C3CCOCC3)C(F)(F)F)ccc2F)cc1C(=O)N[C@H]1[C@@H](C(=O)Nc2ccc(F)c(C(F)(F)F)c2)[C@H]2CC[C@@H]1/C2=C\C1CCCC1` [compound 955] is 0.1 nM; for `COc1ccc(C2=CCNCC2)cc1C(=O)N[C@@H]1C2CCC(C2=C(C)C)[C@@H]1C(=O)Nc1ccc(F)c(C(F)(F)F)c1` (stereo partly drawn) [compound 148] it is 910 nM; for `COc1ccc(-c2cc(C3=NOC(C(=O)O)C3)ccc2F)cc1C(=O)N[C@H]1[C@@H](C(=O)Nc2ccc(F)c(C(F)(F)F)c2)[C@H]2CC[C@@H]1/C2=C\C1CCCC1` (stereo partly drawn) [compound 946] it is 0.9 nM. With `COc1ccc(C2CCCN2CC(C)(C)O)cc1C(=O)N[C@@H]1C2CCC(C2=CC2CC2)[C@@H]1C(=O)Nc1ccc(F)c(C(F)(F)F)c1` (stereo partly drawn) [compound 698], the EC50 was 1010 nM.

Take `CCCOc1c(F)cc(C2=NOC3CC(CO)CC23)cc1C(=O)N[C@H]1[C@@H](C(=O)Nc2ccc(F)c(C(F)(F)F)c2)[C@H]2CC[C@@H]1/C2=C\C1CC1` (stereo partly drawn) [compound 782]: the concentration giving a half-maximal response (EC50) was determined as 3.2 nM. For `COc1ccc(-c2cc(S(C)(=O)=O)ccc2F)cc1C(=O)N[C@H]1[C@@H](C(=O)Nc2ccc(F)c(C(F)(F)F)c2)[C@H]2CC[C@@H]1/C2=C\C1CC1` [compound 899], the 50% effective concentration (EC50) turned out to be 3 nM. Consider `COc1ccc(-c2cc(C(=O)O)ccc2F)cc1C(=O)N[C@@H]1C2CCC(/C2=C/C2CC2)[C@@H]1C(=O)Nc1ccc(F)c(F)c1F` (stereo partly drawn) [compound 305], for which the concentration giving a half-maximal response (EC50) turned out to be 1380 nM. To `CCc1cccc(/C=C2\C3CCC2[C@H](C(=O)Nc2ccc(F)c(C(F)(F)F)c2)[C@@H]3NC(=O)c2cc(F)c(F)cc2OC)c1` (stereo partly drawn) [compound 29] belongs 110 nM; to `C=C/C=C1\C2CCC1[C@H](C(=O)Nc1ccc(F)c(C(F)(F)F)c1)[C@@H]2NC(=O)c1cc(-c2cc(C(N)=O)ccc2F)ccc1OC` (stereo partly drawn) [compound 163], 13 nM; to `COc1cc(F)c(F)cc1C(=O)N[C@@H]1C2CCC(C2=C(C)C)[C@@H]1C(=O)Nc1ccnc(C(F)(F)F)c1` (stereo partly drawn) [compound 75], 2600 nM. For the compound `COc1ccc(C2CC3COCC32)cc1C(=O)N[C@H]1[C@@H](C(=O)Nc2ccc(F)c(C(F)(F)F)c2)[C@H]2CC[C@@H]1/C2=C\C1CC1` (single isomer, unassigned) [compound 729], the EC50 was 82 nM.
